# In ChEMBL document CHEMBL6127087 (Eur J Med Chem, 2024):
# Active and inactive are the calls of the source. The calls are words filed in the database; no cut-off is given here.
# Key:
# P2Y purinoceptor 6 = P2Y purinoceptor 6 (Homo sapiens, UniProt Q15077); experiment: Antagonist activity at human P2Y6R expressed in CHO cells assessed as inhibition of UDP sodium salt-induced Ca2+ level by FLIPR calcium 6 assay; assay type: functional, cell-based
# [1] = Tmax in male Sprague-Dawley rat at 20 mg/kg, po measured after 24 hrs by LC-MS/MS analysis; assay type: ADME, organism-based; details: in vivo, po, 20 mg/kg, 24 h
# [2] = Clearance in male Sprague-Dawley rat at 10 mg/kg, iv measured after 24 hrs by LC-MS/MS analysis; assay type: ADME, organism-based; details: in vivo
# [3] = Cmax in male Sprague-Dawley rat at 20 mg/kg, po measured after 24 hrs by LC-MS/MS analysis; assay type: ADME, organism-based; details: in vivo, po, 20 mg/kg, 24 h
# [4] = Half-life in male Sprague-Dawley rat at 20 mg/kg, po measured after 24 hrs by LC-MS/MS analysis; assay type: ADME, organism-based; details: in vivo, po, 20 mg/kg, 24 h
# [5] = Oral bioavailability in male Sprague-Dawley rat at 20 mg/kg measured after 24 hrs by LC-MS/MS analysis; assay type: ADME, organism-based; details: in vivo, po, 20 mg/kg, 24 h
# [6] = Clearance in male Sprague-Dawley rat at 20 mg/kg, po measured after 24 hrs by LC-MS/MS analysis; assay type: ADME, organism-based; details: in vivo
# [7] = Cmax in male Sprague-Dawley rat at 10 mg/kg, iv measured after 24 hrs by LC-MS/MS analysis; assay type: ADME, organism-based; details: in vivo, iv, 10 mg/kg, 24 h
# [8] = AUC (0 to 24 hrs) in male Sprague-Dawley rat at 20 mg/kg, po measured after 24 hrs by LC-MS/MS analysis; assay type: ADME, organism-based; details: in vivo, po, 20 mg/kg, 24 h
# [9] = AUC (0 to 24 hrs) in male Sprague-Dawley rat at 10 mg/kg, iv measured after 24 hrs by LC-MS/MS analysis; assay type: ADME, organism-based; details: in vivo
# [10] = Tmax in male Sprague-Dawley rat at 10 mg/kg, iv measured after 24 hrs by LC-MS/MS analysis; assay type: ADME, organism-based; details: in vivo, iv, 10 mg/kg, 24 h
# [11] = Half-life in male Sprague-Dawley rat at 10 mg/kg, iv measured after 24 hrs by LC-MS/MS analysis; assay type: ADME, organism-based; details: in vivo, iv, 10 mg/kg, 24 h
# P2Y purinoceptor 12 = P2Y purinoceptor 12 (Homo sapiens, UniProt Q9H244); experiment: Antagonist activity at human P2Y12R stably expressed in HEK293 cells assessed as inhibition of MeSADP-induced cAMP accumulation preincubated with compound for 30 mins followed by MeSADP addition by cAMP-GloTM assay; assay type: functional, cell-based
# Chain of P2Y purinoceptor 12 (Q9H244 whole entry): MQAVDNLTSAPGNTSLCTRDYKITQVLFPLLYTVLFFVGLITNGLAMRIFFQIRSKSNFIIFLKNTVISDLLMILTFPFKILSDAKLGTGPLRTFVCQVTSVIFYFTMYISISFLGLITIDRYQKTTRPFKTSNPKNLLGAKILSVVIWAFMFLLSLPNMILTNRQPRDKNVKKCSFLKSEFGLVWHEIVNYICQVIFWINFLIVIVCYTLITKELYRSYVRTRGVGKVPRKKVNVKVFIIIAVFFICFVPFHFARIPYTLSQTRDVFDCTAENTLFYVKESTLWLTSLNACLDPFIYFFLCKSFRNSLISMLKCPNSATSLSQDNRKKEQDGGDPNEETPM
# Mus musculus [12] = experiment: (§1) Anti-inflammatory activity in LPS-induced male C57BL/6 mouse model of acute […] injury assessed as reduction in interstitial edema in lung at 2 mg/kg, IG preadministered with compound for 7 days followed by LPS administration and measured after 24 hrs by H and E staining based histopathological analysis; assay type: functional, organism-based; details: time 8.0 day
# Mus musculus [13] = experiment: Anti-inflammatory activity in LPS-induced male C57BL/6 mouse model of acute […] injury assessed as reduction in infiltration of immune cells by measuring decrease in lymphocytes count at 2 mg/kg, IG preadministered with compound for 7 days followed by LPS administration and measured after 24 hrs; assay type: functional, organism-based; details: time 8.0 day
# Mus musculus [14] = experiment: as §1, with “alveolar septa thickening” for “interstitial edema”; assay type: functional, organism-based; details: time 8.0 day
# Mus musculus [15] = experiment: Anti-inflammatory activity in LPS-induced male C57BL/6 mouse model of acute […] injury assessed as reduction in infiltration of immune cells by measuring decrease in WBC count at 2 mg/kg, IG preadministered with compound for 7 days followed by LPS administration and measured after 24 hrs; assay type: functional, organism-based; details: time 8.0 day
# Mus musculus [16] = experiment: Anti-inflammatory activity in LPS-induced male C57BL/6 mouse model of acute […] injury assessed as reduction in infiltration of immune cells by measuring decrease in neutrophil count at 2 mg/kg, IG preadministered with compound for 7 days followed by LPS administration and measured after 24 hrs; assay type: functional, organism-based; details: time 8.0 day
# Mus musculus [17] = experiment: Anti-inflammatory activity in LPS-induced male C57BL/6 mouse model of acute […] injury assessed as reduction in IL-1beta level in BALF at 2 mg/kg, IG preadministered with compound for 7 days followed by LPS administration and measured after 24 hrs by ELISA; assay type: functional, organism-based; details: time 8.0 day
# Mus musculus [18] = experiment: as §1, with “inflammatory infiltration” for “interstitial edema”; assay type: functional, organism-based; details: time 8.0 day
# Mus musculus [19] = experiment: Anti-inflammatory activity in LPS-induced male C57BL/6 mouse model of acute […] injury assessed as reduction in IL-6 level in BALF at 2 mg/kg, IG preadministered with compound for 7 days followed by LPS administration and measured after 24 hrs by ELISA; assay type: functional, organism-based; details: time 8.0 day
# Mus musculus [20] = experiment: Anti-inflammatory activity in LPS-induced male C57BL/6 mouse model of acute […] injury assessed as reduction in TNF-alpha level in BALF at 2 mg/kg, IG preadministered with compound for 7 days followed by LPS administration and measured after 24 hrs by ELISA; assay type: functional, organism-based; details: time 8.0 day
# Mus musculus [21] = experiment: Anti-inflammatory activity in LPS-induced male C57BL/6 mouse model of acute […] injury assessed as reduction in infiltration of immune cells by measuring decrease in monocytes count at 2 mg/kg, IG preadministered with compound for 7 days followed by LPS administration and measured after 24 hrs; assay type: functional, organism-based; details: time 8.0 day
# Mus musculus [22] = experiment: as §1, with “intact appearance of alveolar structure” for “reduction in interstitial edema”; assay type: functional, organism-based; details: time 8.0 day
# Mus musculus [23] = experiment: as §1, with “hyperemia of pulmonary alveolar septa” for “interstitial edema”; assay type: functional, organism-based; details: time 8.0 day
# Mus musculus [24] = experiment: as §1, with “absence of lesion” for “reduction in interstitial edema”, “lung parenchyma” for “lung”; assay type: functional, organism-based; details: time 8.0 day
# Mus musculus [25] = experiment: as §1, with “tissue destruction” for “interstitial edema”; assay type: functional, organism-based; details: time 8.0 day
# P2Y purinoceptor 4 = P2Y purinoceptor 4 (Homo sapiens, UniProt P51582); experiment: Antagonist activity at human P2Y4R stably expressed in HEK293 cells assessed as inhibition of UTP-induced IP3 accumulation preincubated with compound for 30 mins followed by UTP addition by ELISA
# Chain of P2Y purinoceptor 4 (P51582 whole entry): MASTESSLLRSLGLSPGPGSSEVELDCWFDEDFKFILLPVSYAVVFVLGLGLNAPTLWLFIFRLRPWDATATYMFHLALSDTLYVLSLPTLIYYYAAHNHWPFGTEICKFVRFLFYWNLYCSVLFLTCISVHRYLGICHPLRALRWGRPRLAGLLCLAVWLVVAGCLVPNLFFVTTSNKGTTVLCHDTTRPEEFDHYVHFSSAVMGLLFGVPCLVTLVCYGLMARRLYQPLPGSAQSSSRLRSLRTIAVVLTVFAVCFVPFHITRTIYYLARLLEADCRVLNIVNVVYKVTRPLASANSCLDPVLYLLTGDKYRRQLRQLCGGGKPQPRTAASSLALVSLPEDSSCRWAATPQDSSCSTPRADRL
# Chain of P2Y purinoceptor 6 (Q15077 whole entry): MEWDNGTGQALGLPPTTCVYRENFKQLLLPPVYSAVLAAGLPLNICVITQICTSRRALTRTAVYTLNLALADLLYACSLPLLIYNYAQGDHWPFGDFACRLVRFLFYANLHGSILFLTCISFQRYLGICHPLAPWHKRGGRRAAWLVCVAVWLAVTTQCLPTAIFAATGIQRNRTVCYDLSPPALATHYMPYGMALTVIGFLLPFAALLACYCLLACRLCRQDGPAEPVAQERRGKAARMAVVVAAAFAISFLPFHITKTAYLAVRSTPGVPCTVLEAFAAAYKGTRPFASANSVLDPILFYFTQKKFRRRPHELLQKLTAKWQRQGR
smiles,measurement,setting,value
Cc1ccc(C2=NN(C(=O)CCC(=O)O)C(c3cc4ccc(C)cc4nc3Cl)C2)cc1 (stereo unspecified),IC50,P2Y purinoceptor 6,84.6 nM
Cc1cccc2cc(C3CC(c4ccc[nH]4)=NN3C(=O)CCC(=O)O)c(Cl)nc12 (stereo unspecified),IC50,P2Y purinoceptor 6,53.7 nM
O=C(O)CCC(=O)N1N=C(c2ccccc2)CC1c1cc2ccccc2nc1Cl (stereo unspecified),IC50,P2Y purinoceptor 6,274 nM
O=C(O)CCC(=O)N1N=C(c2ccccc2)CC1c1cc2ccc(F)cc2nc1Cl (stereo unspecified),IC50,P2Y purinoceptor 6,187 nM
O=C(O)CCCC(=O)N1N=C(c2ccc[nH]2)CC1c1cnc2ccccc2c1 (stereo unspecified),IC50,P2Y purinoceptor 6,200 nM
Cc1ccc2cc(C3CC(c4ccc(-c5ccccc5)cc4)=NN3C(=O)CCC(=O)O)c(Cl)nc2c1 (stereo unspecified),Tmax,[1],14 min
same,clearance,[2],13.5 mL/min/kg
same,Cmax,[3],1211 ng/mL
same,t1/2,[4],12 min
same,F,[5],16%
same,IC50,P2Y purinoceptor 6,168 nM
same,CL/F,[6],20.1 mL/min/kg
same,Cmax,[7],864 ng/mL
same,AUC,[8],2356 µg·h/L
same,AUC,[9],1854 µg·h/L
same,Tmax,[10],9 min
same,t1/2,[11],6 min
COc1cccc(C2=NN(C(=O)CCC(=O)O)C(c3cc4ccc(C)cc4nc3Cl)C2)c1 (stereo unspecified),IC50,P2Y purinoceptor 6,77.5 nM
Cc1ccc2cc(C3CC(c4ccco4)=NN3C(=O)CCCC(=O)O)c(Cl)nc2c1 (stereo unspecified),IC50,P2Y purinoceptor 6,> 500 nM
Cc1ccc2cc(C3CC(c4ccco4)=NN3C(=O)CCC(=O)O)c(Cl)nc2c1 (stereo unspecified),IC50,P2Y purinoceptor 6,26.5 nM
Cc1ccc2cc(C3CC(c4ccc5ccccc5c4)=NN3C(=O)CCC(=O)O)c(Cl)nc2c1 (stereo unspecified),IC50,P2Y purinoceptor 6,> 500 nM
CCCSc1nc(N[C@@H]2C[C@H]2c2ccc(F)c(F)c2)c2nnn([C@@H]3C[C@H](OCCO)[C@@H](O)[C@H]3O)c2n1 [TICAGRELOR],IC50,P2Y purinoceptor 12,1220 nM
Cc1ccc2cc(C3CC(c4ccc(C(C)(C)C)cc4)=NN3C(=O)CCC(=O)O)c(Cl)nc2c1 (stereo unspecified),IC50,P2Y purinoceptor 6,69.4 nM
Cc1ccc2cc(C3CC(c4c[nH]c5ccccc45)=NN3C(=O)CCC(=O)O)c(Cl)nc2c1 (stereo unspecified),IC50,P2Y purinoceptor 6,148 nM
O=C(O)/C=C\C(=O)N1N=C(c2ccc[nH]2)CC1c1cnc2ccccc2c1 (stereo unspecified),IC50,P2Y purinoceptor 6,386 nM
Cc1ccc2cc(C3CC(c4ccco4)=NN3C(=O)C=CC(=O)O)c(Cl)nc2c1 (stereo unspecified),IC50,P2Y purinoceptor 6,291 nM
Cc1cccc2cc(C3CC(c4ccco4)=NN3C(=O)CCC(=O)O)c(Cl)nc12 (stereo unspecified),IC50,P2Y purinoceptor 6,34.6 nM
Cc1cccc(C2=NN(C(=O)CCC(=O)O)C(c3cc4ccc(C)cc4nc3Cl)C2)c1 (stereo unspecified),IC50,P2Y purinoceptor 6,125 nM
Cc1ccc2cc(C3CC(c4ccc[nH]4)=NN3C(=O)CCC(=O)O)c(Cl)nc2c1 (stereo unspecified),IC50,P2Y purinoceptor 6,29.6 nM
Cc1ccc2cc(C3CC(c4cccnc4)=NN3C(=O)CCC(=O)O)c(Cl)nc2c1 (stereo unspecified),IC50,P2Y purinoceptor 6,279 nM
C[C@@H]1C[C@H]2[C@@H]3CCC4=CC(=O)C=C[C@]4(C)[C@@]3(F)[C@@H](O)C[C@]2(C)[C@@]1(O)C(=O)CO,Activity,Mus musculus [12],Active
same,Activity,Mus musculus [13],Active
same,Activity,Mus musculus [14],Active
same,Activity,Mus musculus [15],Active
same,Activity,Mus musculus [16],Active
same,Activity,Mus musculus [17],Active
same,Activity,Mus musculus [18],Active
same,Activity,Mus musculus [19],Active
same,Activity,Mus musculus [20],Active
same,Activity,Mus musculus [21],Active
same,Activity,Mus musculus [22],Active
same,Activity,Mus musculus [23],Active
same,Activity,Mus musculus [24],Active
same,Activity,Mus musculus [25],Active
Cc1ccc2cc(C3CC(c4ccccc4F)=NN3C(=O)CCC(=O)O)c(Cl)nc2c1 (stereo unspecified),IC50,P2Y purinoceptor 6,> 500 nM
O=C(O)CCC(=O)N1N=C(c2ccco2)CC1c1cnc2ccccc2c1 (stereo unspecified),IC50,P2Y purinoceptor 6,26.7 nM
O=C(O)CCC(=O)N1N=C(c2ccc[nH]2)CC1c1cc2ccccc2nc1Cl (stereo unspecified),IC50,P2Y purinoceptor 6,249 nM
O=C(O)CCC(=O)N1N=C(c2ccc[nH]2)CC1c1cc2ccc(F)cc2nc1Cl (stereo unspecified),IC50,P2Y purinoceptor 6,421 nM
Cc1ccc2cc(C3CC(c4ccc(O)cc4)=NN3C(=O)CCC(=O)O)c(Cl)nc2c1 (stereo unspecified),IC50,P2Y purinoceptor 6,> 500 nM
Cc1ccc2cc(C3CC(c4ccccc4)=NN3C(=O)CCC(=O)O)c(Cl)nc2c1 (stereo unspecified),IC50,P2Y purinoceptor 6,54.6 nM
O=C(O)CCC(=O)N1N=C(c2ccco2)CC1c1cc2ccccc2nc1Cl (stereo unspecified),IC50,P2Y purinoceptor 6,186 nM
Cc1ccc2nc(Cl)c(C3CC(c4ccc[nH]4)=NN3C(=O)CCC(=O)O)cc2c1 (stereo unspecified),IC50,P2Y purinoceptor 6,66.8 nM
Cc1ccc2nc(Cl)c(C3CC(c4ccccc4)=NN3C(=O)CCC(=O)O)cc2c1 (stereo unspecified),IC50,P2Y purinoceptor 6,106 nM
O=C(O)CCC(=O)N1N=C(c2ccccc2)CC1c1cnc2ccccc2c1 (stereo unspecified),IC50,P2Y purinoceptor 6,39.8 nM
Cc1ccc2cc(C3CC(c4cccs4)=NN3C(=O)CCC(=O)O)c(Cl)nc2c1 (stereo unspecified),IC50,P2Y purinoceptor 6,324 nM
Cc1ccc2nc(Cl)c(C3CC(c4ccco4)=NN3C(=O)CCC(=O)O)cc2c1 (stereo unspecified),IC50,P2Y purinoceptor 6,52.8 nM
O=C(C1CC1)N1CCc2cc(Br)c(S(=O)(=O)Nc3ccc(Cl)c(C(F)(F)F)c3)cc21,IC50,P2Y purinoceptor 4,12.5 µM
O=C(O)CCC(=O)N1N=C(c2ccco2)CC1c1cc2ccc(F)cc2nc1Cl (stereo unspecified),IC50,P2Y purinoceptor 6,210 nM
COc1ccc(C2=NN(C(=O)CCC(=O)O)C(c3cc4ccc(C)cc4nc3Cl)C2)cc1 (stereo unspecified),IC50,P2Y purinoceptor 6,106 nM
Cc1ccc2cc(C3CC(c4cccc(C(F)(F)F)c4)=NN3C(=O)CCC(=O)O)c(Cl)nc2c1 (stereo unspecified),IC50,P2Y purinoceptor 6,> 500 nM
Cc1cccc2cc(C3CC(c4ccccc4)=NN3C(=O)CCC(=O)O)c(Cl)nc12 (stereo unspecified),IC50,P2Y purinoceptor 6,41.5 nM
